# In the supplement of paper PMC11551840:
# Key:
# Assay in all cases: IC50 (cell viability, 72 h) (ln(µM))
# SCC-9 = test system: SCC-9
# Description: (§1)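 Discovery screen of OSCC cell lines in 1,536-well plates. Cells were treated 24 h after seeding with 7 concentrations spanning a 1,000-fold half-log range for 72 h, and viability was read by CellTiter-Glo 2.0 and normalised to DMSO (1) and medium-only (0) controls. IC50 comes from a two-parameter logistic nonlinear mixed-effects fit and is reported as natural log of IC50 in µM.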
# PE-CA-PJ15 = test system: PE-CA-PJ15
# Description: as §1
# ORL-136 = test system: ORL-136
# Description: as §1
# HSC-2 = test system: HSC-2
# Description: as §1
# ORL-150 = test system: ORL-150
# Description: as §1
# ORL-153 = test system: ORL-153
# Description: as §1
# BICR10 = test system: BICR10
# Description: as §1
# ORL-115 = test system: ORL-115
# Description: as §1
# ORL-215 = test system: ORL-215
# Description: as §1
# ORL-188 = test system: ORL-188
# Description: as §1
# HO-1-u-1 = test system: HO-1-u-1
# Description: as §1
# ORL-166 = test system: ORL-166
# Description: as §1
# ORL-204 = test system: ORL-204
# Description: as §1
# ORL-207 = test system: ORL-207
# Description: as §1
# ORL-48 = test system: ORL-48
# Description: as §1
# SAS = test system: SAS
# Description: as §1
# ORL-174 = test system: ORL-174
# Description: as §1
# HSC-4 = test system: HSC-4
# Description: as §1
# ORL-156 = test system: ORL-156
# Description: as §1
# ORL-195 = test system: ORL-195
# Description: as §1
# ORL-214 = test system: ORL-214
# Description: as §1
Compound,IC50 (ln) (SCC-9),IC50 (ln) (PE-CA-PJ15),IC50 (ln) (ORL-136),IC50 (ln) (HSC-2),IC50 (ln) (ORL-150),IC50 (ln) (ORL-153),IC50 (ln) (BICR10),IC50 (ln) (ORL-115),IC50 (ln) (ORL-215),IC50 (ln) (ORL-188),IC50 (ln) (HO-1-u-1),IC50 (ln) (ORL-166),IC50 (ln) (ORL-204),IC50 (ln) (ORL-207),IC50 (ln) (ORL-48),IC50 (ln) (SAS),IC50 (ln) (ORL-174),IC50 (ln) (HSC-4),IC50 (ln) (ORL-156),IC50 (ln) (ORL-195),IC50 (ln) (ORL-214)
CN[C@@H]1C[C@H]2O[C@@](C)([C@@H]1OC)n1c3ccccc3c3c4c(c5c6ccccc6n2c5c31)C(=O)NC4 [Staurosporine],-1.81,-1.61,-1.49,-3.4,-2.55,-5.03,-2.87,-2.54,-2.53,-4.74,-3.13,-4.99,-2.94,-4.38,-3.62,-1.77,-4.98,-2.01,-3.75,-2.23,-4.45
CN(C)C/C=C/C(=O)Nc1ccc(C(=O)Nc2cccc(Nc3ncc(Cl)c(-c4c[nH]c5ccccc45)n3)c2)cc1 [THZ1],-0.456,-1.3,-0.297,-2.07,-1.93,-2.01,-1.1,-1.28,-2.18,-2.18,-2.66,-2.72,-1.9,-1.93,-2.1,-1.01,-2.27,-0.322,-2.4,-2.48,-2.58
CC[C@@]1(O)C(=O)OCc2c1cc1n(c2=O)Cc2cc3c(CN(C)C)c(O)ccc3nc2-1 [Topotecan],1.79,-0.416,1.32,-2.93,-1.36,-1.49,-0.563,-0.116,-0.991,-2.17,-0.253,-1.82,-1.8,-1.86,-0.589,-2.78,-1.41,-1.66,-0.763,-0.561,-2.24
CC[C@]1(O)C[C@@H]2CN(CCc3c([nH]c4ccccc34)[C@@](C(=O)OC)(c3cc4c(cc3OC)N(C)[C@H]3[C@@](O)(C(=O)OC)[C@H](OC(C)=O)[C@]5(CC)C=CCN6CC[C@]43[C@@H]65)C2)C1 [Vinblastine],-1.75,-2.73,-0.44,-5.8,-7.11,-5.08,-5.52,-3.39,-6,-4.52,0.0626,-5.26,-1.25,-6.16,-4.28,-2.06,-3.94,0.489,-5.51,-3.12,-5.86
CCC1=C[C@@H]2CN(C1)Cc1c([nH]c3ccccc13)[C@@](C(=O)OC)(c1cc3c(cc1OC)N(C)[C@H]1[C@@](O)(C(=O)OC)[C@H](OC(C)=O)[C@]4(CC)C=CCN5CC[C@]31[C@@H]54)C2 [Vinorelbine],-2.4,-2.05,-0.871,-4.57,-4.87,-4.32,-3.91,-3.17,-4.43,-4.3,-2.27,-3.98,-2.86,-4.86,-4.11,-1.52,-4,-1.06,-4.75,-3.19,-3.96
CC[C@@H]1C(=O)N(C)c2cnc(Nc3ccc(C(=O)N[C@H]4CC[C@H](N5CCN(CC6CC6)CC5)CC4)cc3OC)nc2N1C(C)C [Volasertib],-0.541,0.264,2.12,-2.15,-3.61,-2.22,-2.43,-2.17,-2.84,-2.92,-1.37,-2.71,-0.0575,-2.9,-1.36,-0.561,-2.1,-0.173,-2.61,-1.33,-1.65
